Laboratory results taken from US9023789B2, “Amylin analogs and pharmaceutical compositions thereof” (Novo Nordisk A/S, priority 2012, dated 2015).
Read-outs that look alike come from different tables or passages of the source. Numbered stars: 1 amine (or outer) side, 2 acyl side, 3 side chain; on linkers, the order of the positions; unused ones are H or OH. Bridge positions count the residues as written; N and C are the ends. Side chains are listed from the residue outwards. Peptide text beside a SMILES is read from it. * marks the point of attachment. C20 diacid = O=C(O)CCCCCCCCCCCCCCCCCCC(=O)*; γGlu = O=C(O)[C@H](CCC(=O)[*:2])N[*:1]

Key:
[1] = ASSAY (III) ThT fibrillation assay for physical stability; type: physicochemical
Method in brief: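 Formulations with 1 μM ThT, pH adjusted as required, incubated at 37 °C with 960 rpm orbital shaking; fluorescence (ex 444/em 485 nm) read every 20 min. Fibrillation reported as mean ThT fluorescence ± SD of 4–8 replicates at time points; polypeptide concentration measured by reverse-phase HPLC before and after, post-centrifugation.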

[2] = ASSAY (IV) determination of solubility; type: physicochemical
Method in brief: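 Polypeptide in water at […] mixed 1:1 with 100 mM buffers of pH 3.0-8.0 (glycylglycine pH 3-5, bistrispropane pH 6-8). Held 18 h at room temperature, then centrifuged; concentration remaining in solution measured by UPLC.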

[3] = bistrispropane buffer, pH 6.5, read-out: Solubility pH 6.5 Concentration
[4] = bistrispropane buffer, pH 7.5, read-out: Solubility pH 7.5 Concentration
[5] = bistrispropane buffer, pH 6.0, read-out: Solubility pH 6.0 Concentration
[6] = bistrispropane buffer, pH 7.0, read-out: Solubility pH 7.0 Concentration
[7] = bistrispropane buffer, pH 8.0, read-out: Solubility pH 8.0 Concentration
[8] = glycylglycine buffer, pH 3.0, read-out: Solubility pH 3.0 Concentration
[9] = glycylglycine buffer, pH 4.0, read-out: Solubility pH 4.0 Concentration
[10] = glycylglycine buffer, pH 5.0, read-out: Solubility pH 5.0 Concentration

With `CC[C@H](C)[C@H](NC(=O)[C@H](C)NC(=O)CNC(=O)[C@H](Cc1ccccc1)NC(=O)[C@H](CC(N)=O)NC(=O)[C@@H]1CCCN1C(=O)[C@H](CO)NC(=O)[C@H](CO)NC(=O)[C@H](Cc1c[nH]cn1)NC(=O)[C@H](CCCNC(=N)N)NC(=O)[C@H](CC(C)C)NC(=O)[C@H](Cc1ccccc1)NC(=O)[C@H](CCC(=O)O)NC(=O)[C@H](C)NC(=O)[C@H](CC(C)C)NC(=O)[C@H](CCCNC(=N)N)NC(=O)[C@H](CCC(N)=O)NC(=O)[C@@H](NC(=O)[C@H](C)NC(=O)[C@@H]1CSSC[C@H](NC(=O)[C@H](CCCCN)NC(=O)CC[C@H](NC(=O)CCCCCCCCCCCCCCCCCCC(=O)O)C(=O)O)C(=O)N[C@@H](CC(N)=O)C(=O)N[C@@H]([C@@H](C)O)C(=O)N[C@@H](C)C(=O)N[C@@H]([C@@H](C)O)C(=O)N1)[C@@H](C)O)C(=O)N1CCC[C@H]1C(=O)N[C@@H](CO)C(=O)N[C@@H](CO)C(=O)N[C@H](C(=O)N[C@@H](CC(N)=O)C(=O)N[C@H](C(=O)NCC(=O)N[C@@H](CO)C(=O)N[C@@H](CC(N)=O)C(=O)N[C@H](C(=O)N1CCC[C@H]1C(N)=O)[C@@H](C)O)C(C)C)[C@@H](C)O` [Example 8] ({C20 diacid-γGlu}-KCNTATCATQRLAEFLRHSSPNFGAIPSSTNVGSNTP-NH2; disulfide 2-7) the “ThT pH 4.0 lag time (h)” value [1] was 45 h, the solubility at 18 h [2, 3] was ≥ 200 µM and the solubility at 18 h [2, 4] was ≥ 200 µM. The solubility at 18 h [2, 5] was ≥ 200 µM, the solubility at 18 h [2, 6] was ≥ 200 µM and the solubility at 18 h [2, 7] was ≥ 200 µM. The solubility at 18 h [2, 8] was ≥ 200 µM, the solubility at 18 h [2, 9] was ≥ 200 µM and the solubility at 18 h [2, 10] was ≥ 200 µM.

For `CC[C@H](C)[C@H](NC(=O)[C@H](C)NC(=O)CNC(=O)[C@H](Cc1ccccc1)NC(=O)[C@H](CC(N)=O)NC(=O)[C@@H]1CCCN1C(=O)[C@H](CO)NC(=O)[C@H](CO)NC(=O)[C@H](Cc1c[nH]cn1)NC(=O)[C@H](CCCNC(=N)N)NC(=O)[C@H](CC(C)C)NC(=O)[C@H](Cc1ccccc1)NC(=O)[C@H](CC(=O)O)NC(=O)[C@H](C)NC(=O)[C@H](CC(C)C)NC(=O)[C@H](CCCNC(=N)N)NC(=O)[C@H](CCC(N)=O)NC(=O)[C@@H](NC(=O)[C@H](C)NC(=O)[C@@H]1CSSC[C@H](NC(=O)[C@H](CCCCN)NC(=O)CC[C@H](NC(=O)CCCCCCCCCCCCCCCCCCC(=O)O)C(=O)O)C(=O)N[C@@H](CC(N)=O)C(=O)N[C@@H]([C@@H](C)O)C(=O)N[C@@H](C)C(=O)N[C@@H]([C@@H](C)O)C(=O)N1)[C@@H](C)O)C(=O)N1CCC[C@H]1C(=O)N[C@@H](CO)C(=O)N[C@@H](CO)C(=O)N[C@H](C(=O)N[C@@H](CC(N)=O)C(=O)N[C@H](C(=O)NCC(=O)N[C@@H](CO)C(=O)N[C@@H](CC(N)=O)C(=O)N[C@H](C(=O)N1CCC[C@H]1C(N)=O)[C@@H](C)O)C(C)C)[C@@H](C)O` [Example 10] ({C20 diacid-γGlu}-KCNTATCATQRLADFLRHSSPNFGAIPSSTNVGSNTP-NH2; disulfide 2-7 (inferred)), the “ThT pH 4.0 lag time (h)” value [1] was 45 h, the solubility at 18 h [2, 3] was ≥ 200 µM and the solubility at 18 h [2, 4] was ≥ 200 µM. The solubility at 18 h [2, 5] was ≥ 200 µM, the solubility at 18 h [2, 6] was ≥ 200 µM and the solubility at 18 h [2, 7] was ≥ 200 µM. The solubility at 18 h [2, 8] was ≥ 200 µM, the solubility at 18 h [2, 9] was ≥ 200 µM and the solubility at 18 h [2, 10] was ≥ 200 µM.

In the case of `CC[C@H](C)[C@H](NC(=O)[C@H](C)NC(=O)CNC(=O)[C@H](Cc1ccccc1)NC(=O)[C@H](CC(N)=O)NC(=O)[C@@H]1CCCN1C(=O)[C@H](CO)NC(=O)[C@H](CO)NC(=O)[C@H](Cc1c[nH]cn1)NC(=O)[C@H](CCCNC(=N)N)NC(=O)[C@H](CC(C)C)NC(=O)[C@H](Cc1ccccc1)NC(=O)[C@H](CCC(=O)O)NC(=O)[C@H](C)NC(=O)[C@H](CC(C)C)NC(=O)[C@H](CCCNC(=N)N)NC(=O)[C@H](CCC(N)=O)NC(=O)[C@@H](NC(=O)[C@H](C)NC(=O)[C@@H]1CSSC[C@H](NC(=O)[C@H](CCCCN)NC(=O)CC[C@H](NC(=O)CCCCCCCCCCCCCCCCCCC(=O)O)C(=O)O)C(=O)N[C@@H](CC(N)=O)C(=O)N[C@@H]([C@@H](C)O)C(=O)N[C@@H](C)C(=O)N[C@@H]([C@@H](C)O)C(=O)N1)[C@@H](C)O)C(=O)N1CCC[C@H]1C(=O)N[C@@H](CO)C(=O)N[C@@H](CO)C(=O)N[C@H](C(=O)N[C@@H](CC(N)=O)C(=O)N[C@H](C(=O)NCC(=O)N[C@@H](CO)C(=O)N[C@@H](CC(=O)O)C(=O)N[C@H](C(=O)N1CCC[C@H]1C(N)=O)[C@@H](C)O)C(C)C)[C@@H](C)O` [Example 11] ({C20 diacid-γGlu}-KCNTATCATQRLAEFLRHSSPNFGAIPSSTNVGSDTP-NH2; disulfide 2-7 (inferred)), the “ThT pH 4.0 lag time (h)” value [1] is reported as 45 h, the solubility at 18 h [2, 3] is reported as ≥ 200 µM and the solubility at 18 h [2, 4] is reported as ≥ 200 µM. For the same molecule, the solubility at 18 h [2, 5] was ≥ 200 µM, the solubility at 18 h [2, 6] was ≥ 200 µM and the solubility at 18 h [2, 7] was ≥ 200 µM. For the same molecule, the solubility at 18 h [2, 8] was ≥ 200 µM, the solubility at 18 h [2, 9] was ≥ 200 µM and the solubility at 18 h [2, 10] was ≥ 200 µM.

In the case of `CC[C@H](C)[C@H](NC(=O)[C@H](C)NC(=O)CNC(=O)[C@H](Cc1ccccc1)NC(=O)[C@H](CC(N)=O)NC(=O)[C@@H]1CCCN1C(=O)[C@H](CO)NC(=O)[C@H](CO)NC(=O)[C@H](Cc1c[nH]cn1)NC(=O)[C@H](CCCNC(=N)N)NC(=O)[C@H](CC(C)C)NC(=O)[C@H](Cc1ccccc1)NC(=O)[C@H](CCC(=O)O)NC(=O)[C@H](C)NC(=O)[C@H](CC(C)C)NC(=O)[C@H](CCCNC(=N)N)NC(=O)[C@H](CCC(N)=O)NC(=O)[C@@H](NC(=O)[C@H](C)NC(=O)[C@@H]1CSSC[C@H](NC(=O)[C@@H](N)CCCCNC(=O)CC[C@H](NC(=O)CCCCCCCCCCCCCCCCCCC(=O)O)C(=O)O)C(=O)N[C@@H](CC(N)=O)C(=O)N[C@@H]([C@@H](C)O)C(=O)N[C@@H](C)C(=O)N[C@@H]([C@@H](C)O)C(=O)N1)[C@@H](C)O)C(=O)N1CCC[C@H]1C(=O)N[C@@H](CO)C(=O)N[C@@H](CO)C(=O)N[C@H](C(=O)N[C@@H](CC(N)=O)C(=O)N[C@H](C(=O)NCC(=O)N[C@@H](CO)C(=O)N[C@@H](CC(N)=O)C(=O)N[C@H](C(=O)N1CCC[C@H]1C(N)=O)[C@@H](C)O)C(C)C)[C@@H](C)O` [Example 12] (H-K([γGlu-C20 diacid])CNTATCATQRLAEFLRHSSPNFGAIPSSTNVGSNTP-NH2; disulfide 2-7 (inferred); N-terminus assumed), the “ThT pH 4.0 lag time (h)” value [1] is reported as 45 h, the solubility at 18 h [2, 3] is reported as ≥ 200 µM and the solubility at 18 h [2, 4] is reported as ≥ 200 µM. For the same molecule, the solubility at 18 h [2, 5] was ≥ 200 µM, the solubility at 18 h [2, 6] was ≥ 200 µM and the solubility at 18 h [2, 7] was ≥ 200 µM. The solubility at 18 h [2, 8] was ≥ 200 µM, the solubility at 18 h [2, 9] was ≥ 200 µM and the solubility at 18 h [2, 10] was ≥ 200 µM.

In the case of `CC[C@H](C)[C@H](NC(=O)[C@H](C)NC(=O)CNC(=O)[C@H](Cc1ccccc1)NC(=O)[C@H](CC(N)=O)NC(=O)[C@@H]1CCCN1C(=O)[C@H](CO)NC(=O)[C@H](CO)NC(=O)[C@H](Cc1c[nH]cn1)NC(=O)[C@H](CCCNC(=N)N)NC(=O)[C@H](CC(C)C)NC(=O)[C@H](Cc1ccccc1)NC(=O)[C@H](CCC(=O)O)NC(=O)[C@H](C)NC(=O)[C@H](CC(C)C)NC(=O)[C@H](CCCNC(=N)N)NC(=O)[C@H](CCC(N)=O)NC(=O)[C@@H](NC(=O)[C@H](C)NC(=O)[C@@H]1CSSC[C@H](NC(=O)[C@H](CCCCN)NC(=O)CC[C@H](NC(=O)CC[C@H](NC(=O)CCCCCCCCCCCCCCCCCCC(=O)O)C(=O)O)C(=O)O)C(=O)N[C@@H](CC(N)=O)C(=O)N[C@@H]([C@@H](C)O)C(=O)N[C@@H](C)C(=O)N[C@@H]([C@@H](C)O)C(=O)N1)[C@@H](C)O)C(=O)N1CCC[C@H]1C(=O)N[C@@H](CO)C(=O)N[C@@H](CO)C(=O)N[C@H](C(=O)N[C@@H](CC(N)=O)C(=O)N[C@H](C(=O)NCC(=O)N[C@@H](CO)C(=O)N[C@@H](CC(N)=O)C(=O)N[C@H](C(=O)N[C@@H](Cc1ccc(O)cc1)C(N)=O)[C@@H](C)O)C(C)C)[C@@H](C)O` [Example 15] ({C20 diacid-γGlu-γGlu}-KCNTATCATQRLAEFLRHSSPNFGAIPSSTNVGSNTY-NH2; disulfide 2-7 (inferred)), the “ThT pH 4.0 lag time (h)” value [1] is reported as 45 h, the solubility at 18 h [2, 3] is reported as ≥ 200 µM and the solubility at 18 h [2, 4] is reported as ≥ 200 µM. For the same molecule, the solubility at 18 h [2, 5] was ≥ 200 µM, the solubility at 18 h [2, 6] was ≥ 200 µM and the solubility at 18 h [2, 7] was ≥ 200 µM. The solubility at 18 h [2, 8] was ≥ 200 µM, the solubility at 18 h [2, 9] was ≥ 200 µM and the solubility at 18 h [2, 10] was ≥ 200 µM.

For `CC[C@H](C)[C@H](NC(=O)[C@H](C)NC(=O)CNC(=O)[C@H](Cc1ccccc1)NC(=O)[C@H](CC(N)=O)NC(=O)[C@@H]1CCCN1C(=O)[C@H](CO)NC(=O)[C@H](CO)NC(=O)[C@H](Cc1c[nH]cn1)NC(=O)[C@H](CCCNC(=N)N)NC(=O)[C@H](CC(C)C)NC(=O)[C@H](Cc1ccccc1)NC(=O)[C@H](CCC(=O)O)NC(=O)[C@H](C)NC(=O)[C@H](CC(C)C)NC(=O)[C@H](CCCNC(=N)N)NC(=O)[C@H](CCC(N)=O)NC(=O)[C@@H](NC(=O)[C@H](C)NC(=O)[C@@H]1CSSC[C@H](NC(=O)[C@@H](N)CCCCNC(=O)CC[C@H](NC(=O)CC[C@H](NC(=O)CCCCCCCCCCCCCCCCCCC(=O)O)C(=O)O)C(=O)O)C(=O)N[C@@H](CC(N)=O)C(=O)N[C@@H]([C@@H](C)O)C(=O)N[C@@H](C)C(=O)N[C@@H]([C@@H](C)O)C(=O)N1)[C@@H](C)O)C(=O)N1CCC[C@H]1C(=O)N[C@@H](CO)C(=O)N[C@@H](CO)C(=O)N[C@H](C(=O)N[C@@H](CC(N)=O)C(=O)N[C@H](C(=O)NCC(=O)N1CCC[C@H]1C(=O)N[C@@H](CC(N)=O)C(=O)N[C@H](C(=O)N[C@@H](Cc1ccccc1)C(N)=O)[C@@H](C)O)C(C)C)[C@@H](C)O` [Example 127] (H-K([γGlu-γGlu-C20 diacid])CNTATCATQRLAEFLRHSSPNFGAIPSSTNVGPNTF-NH2; disulfide 2-7 (inferred)), the “ThT pH 4.0 lag time (h)” value [1] was 25 h.
